The source made the active and inactive calls. Rule as the data show it, for most assays here: actives have a measured EC50 and inactives only a lower limit.
Key:
[1] = molecular target: T1, Luciferin 4-monooxygenase (Photinus pyralis, UniProt P08659); assay: Counter Screen for Luciferase-based Assay Positives. [Related pubchem assays: 620, 618, 411 ]
[2] = molecular target: Mitogen-activated protein kinase 10 (Homo sapiens, UniProt P53779); assay: Dose response biochemical screening assay for inhibitors of c-Jun N-Terminal Kinase 3 (JNK3). [Related pubchem assays: 746 ]
Sequence of Mitogen-activated protein kinase 10 (P53779 whole entry, the tested form may be a part): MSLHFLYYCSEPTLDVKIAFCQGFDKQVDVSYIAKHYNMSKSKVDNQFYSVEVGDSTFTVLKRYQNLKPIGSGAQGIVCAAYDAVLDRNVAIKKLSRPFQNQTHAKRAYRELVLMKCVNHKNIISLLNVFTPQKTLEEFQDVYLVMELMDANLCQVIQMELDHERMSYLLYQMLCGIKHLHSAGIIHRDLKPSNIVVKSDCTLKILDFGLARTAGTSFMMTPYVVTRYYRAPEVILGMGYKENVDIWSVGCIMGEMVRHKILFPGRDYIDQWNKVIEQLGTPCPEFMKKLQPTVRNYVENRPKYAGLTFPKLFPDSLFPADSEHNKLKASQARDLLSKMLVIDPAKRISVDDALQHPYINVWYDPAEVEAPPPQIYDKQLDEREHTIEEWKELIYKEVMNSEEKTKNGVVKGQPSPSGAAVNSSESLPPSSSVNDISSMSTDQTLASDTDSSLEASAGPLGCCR

[3] = luciferase reporter signal reduction – luminescence, H4-C neuroglioblastoma cells, dose response (AID 2458); assay type: functional, cell-based;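 also: H4 neuroglioblastoma cells stably carrying a luciferase reporter gene fusion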
[4] = inhibitors of firefly luciferase expression or activity, dose response, H4 neuroglioma cells, luminescence (AID 1990); assay type: functional, cell-based
BJ [5] = assay: cytotoxicity toward BJ-TERT fibroblasts, dose response, cell-based, RAS-independent, luminescence (AID 1933); assay type: functional; details: Homo sapiens
HT-1080 = assay: cytotoxicity in HT1080 fibrosarcoma cells, cell-based, fluorescence readout (AID 620); assay type: functional; details: Homo sapiens
BJ [6] = assay: cytotoxicity toward Ras-transformed BJeLR fibroblasts, dose response, cell-based, alamar blue fluorescence, cherrypicked samples (AID 2631); assay type: functional; details: Homo sapiens;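 also: confirmatory dose-response assay in RAS-dependent BJ fibroblasts engineered with TERT, LT and ST, with cytotoxicity read by fluorescence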
BJ [7] = assay: cytotoxicity toward BJ-TERT-LT-ST fibroblasts, dose response, cell-based, RAS-independent, luminescence (AID 1935); assay type: functional; details: Homo sapiens;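 also: BJ fibroblasts immortalized with TERT plus LT and ST oncogenes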
[8] = Luminescence Cell-Based Dose Confirmation HTS to Identify Inhibitors of Platelet Dense Granule Release. [Related pubchem assays: 1663 (Primary HTS), 1678 (Summary of Project)]; assay type: functional
[9] = molecular target: T1, Luciferin 4-monooxygenase; assay: firefly luciferase enzyme inhibitors, dose response, biochemical, luminescence (AID 1891)
[10] = molecular target: T1, Luciferin 4-monooxygenase; assay: In vitro luciferase assay using purified luciferase. [Related pubchem assays: 1299, 1270, 1295, 1375, 1287, 1281, 1293, 1291, 1289, 1280, 465, 1364, 1282, 1372, 1365, 1370, 1367, 1366, 1266, 1373, 1292, 1290, 1302, 1371, 1283, 1271, 1294, 1374, 1368, 1369 ]
cells = assay type: functional, cell-based
[11] = cytotoxicity in HEK-293T cells, dose response, cytotoxicity control for TCR NF-kB inhibitor project, luminescence, T-cell screen hits (AID 489026); assay type: functional, cell-based;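 also: cells exposed to compound about 14 hours before the viability readout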
[12] = cytotoxicity toward DRD oncogenic fibroblasts, dose response, cell-based, non-viral oncogenic, luminescence (AID 1934); assay type: functional; details: Homo sapiens
[13] = inhibitors of SNCA 5'UTR-driven translation, confirmation, luminescence, H4 neuroglioblastoma cells, dose confirmation (AID 2454); assay type: functional, cell-based;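 also: H4 neuroglioblastoma cells carrying an alpha-synuclein 5'UTR luciferase reporter; potency for inhibition of the luciferase signal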
[14] = inhibitors of SNCA 5'UTR-driven reporter translation, confirmation, H4 neuroglioma cells, luminescence (AID 1988); assay type: functional, cell-based
HEK293 [15] = assay: PMA/Ionomycin induced NF-kB luciferase assay in 293- NF-kB-Luc stable cells. [Related pubchem assays: 1299, 1270, 1295, 1375, 1287, 1281, 1293, 1291, 1289, 1280, 465, 1364, 1282, 1372, 1365, 1370, 1367, 1366, 1269, 1373, 1292, 1290, 1302, 1371, 1283, 1271, 1294, 1374, 1368, 1369 ]; assay type: functional, cell-based; details: Homo sapiens
HEK293 [16] = assay: Cytotoxicity assay in HEK293 cells. [Related pubchem assays (depositor defined):AID1266, AID1269, AID1270, AID1271, AID1280, AID1281, AID1282, AID1283, AID1287, AID1289, AID1290, AID1291, AID1292, AID1293, AID1294, AID1295, AID1299, AID1302, AID1364, AID1365, AID1366, AID1367, AID1369, AID1370, AID1371, AID1372, AID1373, AID1374, AID1375, AID1384 …; assay type: functional, cell-based; details: Homo sapiens
CAAX prenyl protease 2 = molecular target: T2, CAAX prenyl protease 2 (Homo sapiens, UniProt Q9Y256); assay: human Rce1 protease inhibitors, dose response, biochemical, yeast membranes, quenched-peptide fluorescence, cherry-pick (AID 588849)
T2 sequence (Q9Y256 whole entry): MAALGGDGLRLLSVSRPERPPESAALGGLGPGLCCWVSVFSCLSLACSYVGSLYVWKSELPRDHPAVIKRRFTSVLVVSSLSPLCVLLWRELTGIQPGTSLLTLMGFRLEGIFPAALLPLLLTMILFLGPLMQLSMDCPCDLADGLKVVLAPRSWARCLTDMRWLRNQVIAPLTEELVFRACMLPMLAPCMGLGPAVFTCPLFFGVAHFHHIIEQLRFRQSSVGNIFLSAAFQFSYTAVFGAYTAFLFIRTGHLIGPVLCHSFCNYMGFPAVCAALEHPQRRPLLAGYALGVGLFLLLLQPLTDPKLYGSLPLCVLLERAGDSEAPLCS

Trypsin = Trypsin (Sus scrofa, UniProt P00761); assay: porcine trypsin inhibitors, dose response, selectivity assay for Rce1 protease inhibitor project, biochemical, quenched peptide fluorescence, cherry-pick (AID 488789)
Sequence of Trypsin (P00761 whole entry): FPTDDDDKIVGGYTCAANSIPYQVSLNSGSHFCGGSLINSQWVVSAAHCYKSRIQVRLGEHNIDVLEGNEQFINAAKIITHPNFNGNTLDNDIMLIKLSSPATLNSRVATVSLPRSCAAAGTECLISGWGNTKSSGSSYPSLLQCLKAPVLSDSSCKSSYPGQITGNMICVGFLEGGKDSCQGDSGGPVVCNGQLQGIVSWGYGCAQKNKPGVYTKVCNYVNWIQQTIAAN

HeLa = assay: HeLa cell cytotoxicity, dose response, cytotoxicity control, 24 h, cherry-picked samples (AID 504726); assay type: functional, cell-based; details: Homo sapiens;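 also: potency for cytotoxicity as loss of luminescence signal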
[17] = molecular target: T3, Tyrosine-protein phosphatase non-receptor type 7 (Homo sapiens, UniProt P35236); assay: SAR analysis of chemical inhibitors of HePTP using a Fluorescent assay - Set 2. [Related pubchem assays (depositor defined):AID1059, AID1077, AID1661, AID2085, AID521]; assay type: functional
T3 sequence (P35236 whole entry): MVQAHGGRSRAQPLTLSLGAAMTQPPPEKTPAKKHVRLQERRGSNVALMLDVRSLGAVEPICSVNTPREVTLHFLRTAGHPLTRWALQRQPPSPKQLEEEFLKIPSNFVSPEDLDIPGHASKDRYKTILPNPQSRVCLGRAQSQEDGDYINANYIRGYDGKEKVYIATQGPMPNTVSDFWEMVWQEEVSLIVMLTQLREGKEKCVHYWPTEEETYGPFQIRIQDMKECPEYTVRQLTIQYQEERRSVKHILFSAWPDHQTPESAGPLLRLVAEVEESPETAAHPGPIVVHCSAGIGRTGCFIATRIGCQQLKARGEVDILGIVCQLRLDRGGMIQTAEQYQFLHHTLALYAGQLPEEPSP

[18] = molecular target: Dual specificity protein phosphatase 3 (Homo sapiens, UniProt P51452); assay: SAR VHR1 Fluorescent Assay for In Vitro dose response studies Set 2. [Related pubchem assays (depositor defined):AID1654, AID1661, AID1878]; assay type: functional
Sequence of Dual specificity protein phosphatase 3 (P51452 whole entry): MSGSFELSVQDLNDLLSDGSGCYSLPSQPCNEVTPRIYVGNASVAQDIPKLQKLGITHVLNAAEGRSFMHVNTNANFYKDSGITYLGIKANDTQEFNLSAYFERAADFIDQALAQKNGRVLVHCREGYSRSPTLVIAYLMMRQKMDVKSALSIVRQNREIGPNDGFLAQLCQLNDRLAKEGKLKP

T1 sequence (P08659 whole entry): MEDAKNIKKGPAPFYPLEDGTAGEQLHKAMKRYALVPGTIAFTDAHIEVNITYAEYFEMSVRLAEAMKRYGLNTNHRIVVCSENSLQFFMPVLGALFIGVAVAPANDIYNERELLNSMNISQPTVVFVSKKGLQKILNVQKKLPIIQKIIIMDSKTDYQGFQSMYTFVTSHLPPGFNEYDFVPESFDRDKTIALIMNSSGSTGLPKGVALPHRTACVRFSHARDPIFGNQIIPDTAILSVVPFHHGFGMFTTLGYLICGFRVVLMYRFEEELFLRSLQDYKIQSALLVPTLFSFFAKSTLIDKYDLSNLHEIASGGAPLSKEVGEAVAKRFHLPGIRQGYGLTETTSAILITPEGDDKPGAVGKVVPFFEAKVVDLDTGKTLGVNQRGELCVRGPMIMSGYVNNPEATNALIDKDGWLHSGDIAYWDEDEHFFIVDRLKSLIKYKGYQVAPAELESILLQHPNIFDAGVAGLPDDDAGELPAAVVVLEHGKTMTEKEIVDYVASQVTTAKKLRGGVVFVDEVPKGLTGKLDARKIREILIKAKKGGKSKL

**Q.** Which EC50 [1] does the source give for `CCCN1C=CC(=C2C(=O)c3ccccc3C2=O)C=C1` here?
**A.** 0.98 µM (active)

**Q.** What about the IC50 [2] of the same compound?
**A.** 9.84 µM (active)

**Q.** And the EC50 [3]?
**A.** 0.127 µM (active)

**Q.** And the EC50 [4]?
**A.** < 0.195 µM (active)

**Q.** What about the EC50 (BJ [5]) of the same compound?
**A.** 6.69 µM (active)

**Q.** What about the EC50 (HT-1080) of the same compound?
**A.** > 50 µM (not active)

**Q.** What about the EC50 (BJ [6]) of the same compound?
**A.** > 133 µM (inactive)

**Q.** What about the EC50 (BJ [7]) of the same compound?
**A.** 18.2 µM (active)

**Q.** What about the EC50 [8] of the same compound?
**A.** 7.02 µM (active)

**Q.** And the EC50 [9]?
**A.** 0.719 µM (active)

**Q.** And the EC50 [10]?
**A.** 1.09 µM (active)

**Q.** What about the EC50 (cells) of the same compound?
**A.** 0.135 µM (active)

**Q.** What about the IC50 [11] of the same compound?
**A.** > 80 µM (inactive)

**Q.** What about the EC50 [12] of the same compound?
**A.** 6.78 µM (active)

**Q.** What about the EC50 [13] of the same compound?
**A.** 0.139 µM (active)

**Q.** What about the EC50 [14] of the same compound?
**A.** < 0.1 µM (active)

**Q.** What about the EC50 (HEK293 [15]) of the same compound?
**A.** 0.774 µM (active)

**Q.** What about the EC50 (HEK293 [16]) of the same compound?
**A.** 0.589 µM (active)

**Q.** For `COc1cccc2[nH]c(C(=O)NC(C)c3ccccc3)cc12` (stereo not drawn), which AC50 (CAAX prenyl protease 2) is on record?
**A.** 12.1 µM (active)

**Q.** What about the AC50 (Trypsin) of the same compound?
**A.** 11.2 µM (active)

**Q.** And the AC50 (HeLa)?
**A.** 182 µM (active)

**Q.** With `COc1cc(C(=S)NCc2ccc(C(F)(F)F)cc2)ccc1O` as the compound, how does the IC50 [17] read?
**A.** > 100 µM (inactive)

**Q.** And the IC50 [18]?
**A.** 86.9 µM (active)

— ChEMBL document CHEMBL1201862, “PubChem BioAssay data set” (2004)
